This passage reports inhibition results from patent US8106197B2, “Aminoheteroaryl compounds as protein kinase inhibitors” (Pfizer Inc., priority 2003, dated 2012).

The assay has as its target T1, HGFR (Homo sapiens, UniProt P08581).
T1 construct: purchased Upstate 14-526
As to the kind of experiment: HGFR continuous-coupled spectrophotometric assay. The format is biochemical. The conditions noted are these: Table 6; percent c-MET inhibition at 1 μM; read-out: % inhibition.

The structures appear in SMILES notation.

T1 sequence (P08581 974-1390 limits assumed): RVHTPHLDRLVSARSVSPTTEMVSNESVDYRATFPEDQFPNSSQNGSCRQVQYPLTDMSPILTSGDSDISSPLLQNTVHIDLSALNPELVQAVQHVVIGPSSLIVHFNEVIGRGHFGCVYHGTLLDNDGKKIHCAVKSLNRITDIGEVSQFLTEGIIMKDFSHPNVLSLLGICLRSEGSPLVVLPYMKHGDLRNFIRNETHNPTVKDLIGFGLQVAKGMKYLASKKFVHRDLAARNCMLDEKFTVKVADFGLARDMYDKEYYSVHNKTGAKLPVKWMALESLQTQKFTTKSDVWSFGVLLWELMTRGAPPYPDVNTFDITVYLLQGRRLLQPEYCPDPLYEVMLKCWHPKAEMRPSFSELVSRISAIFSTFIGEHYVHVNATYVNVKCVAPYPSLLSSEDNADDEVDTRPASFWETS

On to `Nc1ncc(C(=O)NC(CO)Cc2ccc(Cl)cc2)cc1OCc1c(Cl)cccc1Cl` (centres unmarked), for which the inhibition at 1 µM came to 27%.

As for `COc1ccccc1CNC(=O)c1cnc(N)c(OCc2c(Cl)cccc2Cl)c1`, the inhibition at 1 µM was determined as 32%.

In the case of `Nc1ncc(C(=O)NC2CCN(Cc3ccccc3)C2)cc1OCc1c(Cl)cccc1Cl` (centres unmarked), the inhibition at 1 µM was found to be 27%.

For the compound `Nc1ncc(C(=O)N2CCCC(O)C2)cc1OCc1c(Cl)cccc1Cl` (centres unmarked), the inhibition at 1 µM was 33%.

For the compound `CN(CC#N)C(=O)c1cnc(N)c(OCc2c(Cl)cccc2Cl)c1`, the inhibition at 1 µM came out at 30%.

With `CC(O)CCNC(=O)c1cnc(N)c(OCc2c(Cl)cccc2Cl)c1` (centres unmarked), the inhibition at 1 µM was 35%.

On to `Nc1ncc(C(=O)NCCO)cc1OCc1c(Cl)cccc1Cl`, for which the inhibition at 1 µM stood at 34%.

With `Nc1ncc(C(=O)NCCc2ccncc2)cc1OCc1c(Cl)cccc1Cl`, the inhibition at 1 µM came out at 30%.

Turning to `CCCC(CO)NC(=O)c1cnc(N)c(OCc2c(Cl)cccc2Cl)c1` (centres unmarked), the inhibition at 1 µM was 30%.

For `Nc1ncc(C(=O)NCCOc2ccccc2)cc1OCc1c(Cl)cccc1Cl`, the inhibition at 1 µM came out at 66%.

Take `C[C@@H]1CN(C(=O)c2cnc(N)c(OCc3c(Cl)cccc3Cl)c2)C[C@H](C)O1`: the inhibition at 1 µM was determined as 32%.

As for `CN(C)C1CCN(C(=O)c2cnc(N)c(OCc3c(Cl)cccc3Cl)c2)C1` (centres unmarked), the inhibition at 1 µM came to 33%.

Take `Nc1ncc(C(=O)NCc2ccc(F)cc2F)cc1OCc1c(Cl)cccc1Cl`: the inhibition at 1 µM is 33%.

As for `CN(CCC(O)c1ccccc1)C(=O)c1cnc(N)c(OCc2c(Cl)cccc2Cl)c1` (centres unmarked), the inhibition at 1 µM amounted to 28%.

On to `COc1cc(CCNC(=O)c2cnc(N)c(OCc3c(Cl)cccc3Cl)c2)cc(OC)c1O`, for which the inhibition at 1 µM worked out at 25%.

For `COCCN1CCN(C(=O)c2cnc(N)c(OCc3c(Cl)cccc3Cl)c2)CC1`, the inhibition at 1 µM was found to be 27%.

Turning to `Nc1ncc(C(=O)NCc2cccc(OC(F)F)c2)cc1OCc1c(Cl)cccc1Cl`, the inhibition at 1 µM stood at 32%.

For the compound `Nc1ncc(C(=O)NCc2ccc(F)cc2Cl)cc1OCc1c(Cl)cccc1Cl`, the inhibition at 1 µM amounted to 37%.

For the compound `Nc1ncc(C(=O)NCC(O)c2ccc(O)cc2)cc1OCc1c(Cl)cccc1Cl` (centres unmarked), the inhibition at 1 µM stood at 29%.

Regarding `Nc1ncc(C(=O)N2CCC(C(=O)c3ccccc3)CC2)cc1OCc1c(Cl)cccc1Cl`, the inhibition at 1 µM turned out to be 32%.

Consider `NC(=O)CCNC(=O)c1cnc(N)c(OCc2c(Cl)cccc2Cl)c1`, for which the inhibition at 1 µM came to 28%.

As to `CC(CN(C)C)NC(=O)c1cnc(N)c(OCc2c(Cl)cccc2Cl)c1` (centres unmarked), the inhibition at 1 µM turned out to be 45%.

For the compound `CCCOCCNC(=O)c1cnc(N)c(OCc2c(Cl)cccc2Cl)c1`, the inhibition at 1 µM worked out at 45%.

With `CC(C)OCCNC(=O)c1cnc(N)c(OCc2c(Cl)cccc2Cl)c1`, the inhibition at 1 µM was 46%.

Consider `Nc1ncc(C(=O)N2CCC(CO)CC2)cc1OCc1c(Cl)cccc1Cl`, for which the inhibition at 1 µM worked out at 43%.

Turning to `Nc1ncc(C(=O)N2CCC(CCO)CC2)cc1OCc1c(Cl)cccc1Cl`, the inhibition at 1 µM turned out to be 45%.

On to `CN(CC(N)=O)C(=O)c1cnc(N)c(OCc2c(Cl)cccc2Cl)c1`, for which the inhibition at 1 µM amounted to 39%.

On to `CC(C)CC(NC(=O)c1cnc(N)c(OCc2c(Cl)cccc2Cl)c1)C(N)=O` (centres unmarked), for which the inhibition at 1 µM amounted to 40%.

Consider `Nc1ncc(C(=O)N2CCN(CCCN3CCOCC3)CC2)cc1OCc1c(Cl)cccc1Cl`, for which the inhibition at 1 µM amounted to 40%.

Turning to `CN(C)C(=O)CN1CCN(C(=O)c2cnc(N)c(OCc3c(Cl)cccc3Cl)c2)CC1`, the inhibition at 1 µM was 42%.

For the compound `Nc1ncc(C(=O)NCCN2CCN(Cc3ccccc3)CC2)cc1OCc1c(Cl)cccc1Cl`, the inhibition at 1 µM amounted to 36%.

As to `Nc1ncc(C(=O)NC[C@H]2CC[C@H](c3nc4ccccc4[nH]3)CC2)cc1OCc1c(Cl)cccc1Cl`, the inhibition at 1 µM turned out to be 38%.

As for `Nc1ncc(C(=O)NCc2ccc(C(F)(F)F)nc2)cc1OCc1c(Cl)cccc1Cl`, the inhibition at 1 µM amounted to 17%.

For the compound `CN(C)C(=O)c1cnc(N)c(OCc2c(Cl)cccc2Cl)c1`, the inhibition at 1 µM is 10%.

Consider `Nc1ncc(C(=O)N2CCN(c3ccc(Br)cn3)CC2)cc1OCc1c(Cl)cccc1Cl`, for which the inhibition at 1 µM was determined as 5%.
